Experimental data reported in patent EP1210336B1, “SUBSTITUTED BENZIMIDAZOLES AS NON-NUCLEOSIDE INHIBITORS OF REVERSE TRANSCRIPTASE” (THE UNITED STATES OF AMERICA, as represented by the …, priority 1999, dated 2001).
Read-outs that look alike come from different tables or passages of the source.

Columns and labels:
HIV-1 WT RT = target: T1, HIV-1 WT RT (Human immunodeficiency virus type 1 group M subtype B, UniProt P03366); conditions: reported by Pauwels et al. (TIBO) and Buckheit et al. (thiazolobenzimidazole); read-out: IC50 for rC:dG; cited from earlier work
T1 construct: purified RT protein (0.015 mg/mL) was incubated in a 100 µL reaction mixture

NL4-3 (WT) = assay: Cytopathic cell killing assay, cross-resistance profile, infected MT-4 cells; type: cell-based, HIV-1
How it was run: (§1)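 Cells seeded at 5 x 10^3 per well and infected with pre-titered HIV at MOI giving full killing by day 6 (e.g., 0.01-0.05). Compounds tested in triplicate serial half-log dilutions. Viability measured after six days at 37°C by XTT formazan at 450 nm; TI50 = fold-difference between EC50 and IC50.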

HIV-1 variant V179D = assay: as above; type: cell-based; conditions: isolate V179D
How it was run: as §1

HIV-1 variant Y181C = assay: as above; type: cell-based; conditions: isolate Y181C
How it was run: as §1

WT virus (NL4-3) = assay: microbe, parasite or virus in culture; type: cell-based, HIV-1; conditions: for EC50: Human immunodeficiency virus 1, NL43, CEM-SS, read-out: EC50
How it was run: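 CEM-SS cells (5 x 10^3/well) infected with HIV-1 at an MOI giving complete killing by day 6 (e.g., 0.01-0.05), with serial half-log compound dilutions in triplicate. After 6 days at 37°C, viability read by XTT reduction at 450 nm. CIC50 derived from protection against cytopathic killing.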

[1] = Human immunodeficiency virus 1, NL43, MT4, Table 4, isolate NL4-3 (WT)
[2] = Human immunodeficiency virus 1, NL43, MT4, Table 8, isolate N1.43
[3] = Human immunodeficiency virus 1, NL43, MT4, Table 9, isolate NL4.3
[4] = Human immunodeficiency virus 1, MT4, Table 4
[5] = Human immunodeficiency virus 1, MT4, Table 8
[6] = Human immunodeficiency virus 1, MT4, Table 9

For Fc1cccc(F)c1C1SCc2nc3ccccc3n21 (stereo not drawn) [TZB, 1-(2,6-difluorophenyl)-1H,3H-thiazolo[3,4-a]benzimidazole, reference compound], which IC50 (HIV-1 WT RT) is on record?
Its IC50 is 500 nM.

What about the EC50 (NL4-3 (WT); [1]) of the same molecule?
The EC50 was 1.7 µM.

What about the EC50 (NL4-3 (WT); [2]) of the same molecule?
Its EC50 is 10 µM.

And the EC50 (NL4-3 (WT); [3])?
Its EC50 is 1 µM.

What about the EC50 (HIV-1 variant V179D; [4]) of the same molecule?
The EC50 was 3100 nM.

And the EC50 (HIV-1 variant V179D; [5])?
The EC50 was greater than 10000 nM.

And the EC50 (HIV-1 variant V179D; [6])?
Its EC50 is 3900 nM.

What about the EC50 (HIV-1 variant Y181C; [4]) of the same molecule?
Its EC50 is 16.3 µM.

What about the EC50 (HIV-1 variant Y181C; [6]) of the same molecule?
Its EC50 is greater than 10 µM.

With Cc1cccc2c1nc(-c1c(F)cccc1F)n2Cc1c(F)cccc1F [compound 33, 1-(2,6-difluorobenzyl)-2-(2,6-difluorophenyl)-4-methylbenzimidazole] as the molecule, how does the “cytotoxicity and anti-viral effect (summary graph)” value (WT virus (NL4-3); Figures 10-12, result in words) read?
Its value is “very effective therapeutic dose”.

And the EC50 (WT virus (NL4-3); Table 7, concentration reducing cell killing or virus production by 50%, HIV-1 WT)?
Its EC50 is 440 nM.

What about the EC50 (WT virus (NL4-3); Table 11, CEMSS/NL4-3, NRVC = reduction in viral CPE not seen (footnote)) of the same molecule?
Its EC50 is 440 nM.

And the therapeutic index (WT virus (NL4-3); difference between efficacy of the drug and cellular toxicity, Figure 10)?
The therapeutic index was “greater than one log in concentration”.

What about the EC50 (NL4-3 (WT); [1]) of the same molecule?
The EC50 was 0.5 µM.

What about the EC50 (NL4-3 (WT); [2]) of the same molecule?
Its EC50 is 0.5 µM.

And the EC50 (NL4-3 (WT); [3])?
The EC50 was 0.5 µM.

What about the EC50 (NL4-3 (WT); Human immunodeficiency virus 1, NL43, MT4, Table 10 (values in µM), isolate NL4-3 (WT)) of the same molecule?
Its EC50 is 0.5 µM.

What about the “-fold better in the inhibition of the various viral isolates than the des-methyl analog 26” value (NL4-3 (WT); various viral isolates of Table 4) of the same molecule?
The value was 3- to 4 fold.

And the EC50 (HIV-1 variant V179D; [4])?
Its EC50 is 500 nM.

And the EC50 (HIV-1 variant V179D; [5])?
Its EC50 is 700 nM.

And the EC50 (HIV-1 variant V179D; [6])?
Its EC50 is 700 nM.

And the EC50 (HIV-1 variant Y181C; [4])?
The EC50 was 6 µM.

What about the EC50 (HIV-1 variant Y181C; [6]) of the same molecule?
The EC50 was 4.3 µM.

And the EC50 (HIV-1 variant Y181C; Human immunodeficiency virus 1, MT4, Table 10 (values in µM))?
Its EC50 is 6 µM.
